# Source: PubChem BioAssay AID248 (DTP/NCI, 2004)
# Values joined by “and” are separate entries in the source; they are usually repeats but may differ in a detail not shown here. Equal values may be shown once. Inconclusive results and toxic doses are left out.
# Tested on: L1210 leukemia ip in BDF1 mice, survival T/C
# Test: NCI In Vivo Anticancer Drug Screen. Data for tumor model L1210 Leukemia (intraperitoneal) in B6D2F1 (BDF1) mice
# Settings: endpoint: mean survival time, higher = longer survival
# Summary of the method: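 Ratio derived from survival: compound-dosed mice over vehicle-dosed mice, all bearing a transplantable tumor.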
smiles,measurement,setting,value
COC12C(COC(N)=O)C3=C(C(=O)C(C)=C(N)C3=O)N1CC1C2N1C (stereo not drawn),T/C,"dose: 0.37 mg/kg/injection, schedule: Q01DX009 (ip), vehicle: saline",106 % of control
same,T/C,"dose: 0.7 mg/kg/injection, schedule: Q## X040 (ip), vehicle: saline",106 % of control
same,T/C,"dose: 0.75 mg/kg/injection, schedule: Q01DX009 (ip), vehicle: saline",117 % of control
same,T/C,"dose: 1.25 mg/kg/injection, schedule: Q01DX Z (ip), vehicle: carboxymethylcellulose (CMC)",93 % of control
same,T/C,"dose: 1.4 mg/kg/injection, schedule: Q## X040 (ip), vehicle: saline",118 % of control
same,T/C,"dose: 1.5 mg/kg/injection, schedule: Q01DX009 (ip), vehicle: saline",121 % of control
same,T/C,"dose: 1.5 mg/kg/injection, schedule: Q## X003 (ip), vehicle: saline",117 % of control
same,T/C,"dose: 2.0 mg/kg/injection, schedule: Q01DX009 (ip), vehicle: Klucel (hydroxypropylcellulose) (HPC)",120 % of control
same,T/C,"dose: 2.0 mg/kg/injection, schedule: Q01DX009 (ip), vehicle: saline",165 % of control
same,T/C,"dose: 2.0 mg/kg/injection, schedule: Q01DX009 (sc), vehicle: saline",109 % of control
same,T/C,"dose: 2.0 mg/kg/injection, schedule: Q01DX015 (ip), vehicle: saline",115 % of control and 116 % of control and 121 % of control
same,T/C,"dose: 2.2 mg/kg/injection, schedule: Q01DX007 (ip), vehicle: carboxymethylcellulose (CMC)",123 % of control
same,T/C,"dose: 2.5 mg/kg/injection, schedule: Q01DX Z (ip), vehicle: carboxymethylcellulose (CMC)",97 % of control
same,T/C,"dose: 3.0 mg/kg/injection, schedule: Q01DX001 (ip), vehicle: saline",116 % of control
same,T/C,"dose: 3.0 mg/kg/injection, schedule: Q## X003 (ip), vehicle: saline",112 % of control
same,T/C,"dose: 3.0 mg/kg/injection, schedule: Q## X008 (ip), vehicle: saline",116 % of control
same,T/C,"dose: 3.0 mg/kg/injection, schedule: Q## X040 (ip), vehicle: saline",119 % of control
same,T/C,"dose: 3.35 mg/kg/injection, schedule: Q01DX015 (ip), vehicle: carboxymethylcellulose (CMC)",121 % of control
same,T/C,"dose: 3.5 mg/kg/injection, schedule: Q01DX015 (ip), vehicle: saline",123 % of control
same,T/C,"dose: 4.0 mg/kg/injection, schedule: Q## X024 (ip), vehicle: saline",103 % of control
same,T/C,"dose: 4.4 mg/kg/injection, schedule: Q## X004 (ip), vehicle: saline",114 % of control
same,T/C,"dose: 5.0 mg/kg/injection, schedule: Q01DX007 (ip), vehicle: carboxymethylcellulose (CMC)",156 % of control
same,T/C,"dose: 5.0 mg/kg/injection, schedule: Q01DX009 (oral), vehicle: saline",122 % of control
same,T/C,"dose: 5.0 mg/kg/injection, schedule: Q01DX015 (ip), vehicle: saline",122 % of control
same,T/C,"dose: 5.0 mg/kg/injection, schedule: Q01DX Z (ip), vehicle: carboxymethylcellulose (CMC)",123 % of control
same,T/C,"dose: 6.0 mg/kg/injection, schedule: Q01DX009 (ip), vehicle: saline",151 % of control and 164 % of control
same,T/C,"dose: 6.0 mg/kg/injection, schedule: Q01DX015 (ip), vehicle: carboxymethylcellulose (CMC)",156 % of control
same,T/C,"dose: 6.0 mg/kg/injection, schedule: Q## X008 (ip), vehicle: saline",112 % of control
same,T/C,"dose: 6.7 mg/kg/injection, schedule: Q## X004 (ip), vehicle: saline",121 % of control
same,T/C,"dose: 7.5 mg/kg/injection, schedule: Q01DX007 (ip), vehicle: carboxymethylcellulose (CMC)",158 % of control
same,T/C,"dose: 7.5 mg/kg/injection, schedule: Q01DX015 (ip), vehicle: carboxymethylcellulose (CMC)",163 % of control
same,T/C,"dose: 8.0 mg/kg/injection, schedule: Q01DX009 (ip), vehicle: saline",171 % of control and 176 % of control
same,T/C,"dose: 8.0 mg/kg/injection, schedule: Q01DX015 (ip), vehicle: saline",150 % of control and 153 % of control
same,T/C,"dose: 8.0 mg/kg/injection, schedule: Q## X008 (ip), vehicle: saline",104 % of control
same,T/C,"dose: 8.0 mg/kg/injection, schedule: Q## X016 (ip), vehicle: saline",96 % of control
same,T/C,"dose: 8.0 mg/kg/injection, schedule: Q## X024 (ip), vehicle: saline",111 % of control
same,T/C,"dose: 10.0 mg/kg/injection, schedule: Q01DX Z (ip), vehicle: carboxymethylcellulose (CMC)",151 % of control and 169 % of control
same,T/C,"dose: 11.25 mg/kg/injection, schedule: Q01DX007 (ip), vehicle: carboxymethylcellulose (CMC)",150 % of control
same,T/C,"dose: 12.0 mg/kg/injection, schedule: Q01DX009 (ip), vehicle: saline",153 % of control and 167 % of control
same,T/C,"dose: 12.0 mg/kg/injection, schedule: Q02DX008 (ip), vehicle: saline",154 % of control
same,T/C,"dose: 15.0 mg/kg/injection, schedule: Q01DX001 (ip), vehicle: saline",123 % of control
same,T/C,"dose: 15.0 mg/kg/injection, schedule: Q## X003 (ip), vehicle: saline",162 % of control
same,T/C,"dose: 15.0 mg/kg/injection, schedule: Q## X004 (ip), vehicle: saline",150 % of control
same,T/C,"dose: 16.0 mg/kg/injection, schedule: Q02DX008 (ip), vehicle: saline",158 % of control
same,T/C,"dose: 16.0 mg/kg/injection, schedule: Q## X008 (ip), vehicle: saline",112 % of control
same,T/C,"dose: 16.0 mg/kg/injection, schedule: Q## X016 (ip), vehicle: saline",115 % of control
same,T/C,"dose: 16.0 mg/kg/injection, schedule: Q## X040 (ip), vehicle: saline",167 % of control
same,T/C,"dose: 20.0 mg/kg/injection, schedule: Q01DX001 (ip), vehicle: carboxymethylcellulose (CMC)",165 % of control
same,T/C,"dose: 20.0 mg/kg/injection, schedule: Q01DX001 (sc), vehicle: saline",109 % of control
same,T/C,"dose: 20.0 mg/kg/injection, schedule: Q## X003 (ip), vehicle: saline",192 % of control
same,T/C,"dose: 20.0 mg/kg/injection, schedule: Q## X032 (ip), vehicle: saline",124 % of control
same,T/C,"dose: 22.5 mg/kg/injection, schedule: Q## X004 (ip), vehicle: saline",167 % of control
same,T/C,"dose: 24.0 mg/kg/injection, schedule: Q01DX001 (ip), vehicle: saline",154 % of control
same,T/C,"dose: 26.0 mg/kg/injection, schedule: Q01DX001 (ip), vehicle: carboxymethylcellulose (CMC)",151 % of control
same,T/C,"dose: 27.0 mg/kg/injection, schedule: Q01DX001 (oral), vehicle: saline",116 % of control
same,T/C,"dose: 30.0 mg/kg/injection, schedule: Q01DX001 (ip), vehicle: carboxymethylcellulose (CMC)",157 % of control
same,T/C,"dose: 30.0 mg/kg/injection, schedule: Q01DX001 (ip), vehicle: saline",150 % of control and 162 % of control
same,T/C,"dose: 30.0 mg/kg/injection, schedule: Q01DX001 (sc), vehicle: saline",121 % of control
same,T/C,"dose: 30.0 mg/kg/injection, schedule: Q01DX Z (ip), vehicle: carboxymethylcellulose (CMC)",95 % of control
same,T/C,"dose: 30.0 mg/kg/injection, schedule: Q## X003 (ip), vehicle: saline",182 % of control
same,T/C,"dose: 32.0 mg/kg/injection, schedule: Q02DX008 (ip), vehicle: saline",111 % of control
same,T/C,"dose: 32.0 mg/kg/injection, schedule: Q## X008 (ip), vehicle: saline",185 % of control
same,T/C,"dose: 32.0 mg/kg/injection, schedule: Q## X016 (ip), vehicle: saline",151 % of control
same,T/C,"dose: 32.0 mg/kg/injection, schedule: Q## X032 (ip), vehicle: saline",168 % of control and 169 % of control
same,T/C,"dose: 36.0 mg/kg/injection, schedule: Q01DX009 (oral), vehicle: saline",106 % of control
same,T/C,"dose: 40.0 mg/kg/injection, schedule: Q01DX001 (oral), vehicle: saline",118 % of control
same,T/C,"dose: 40.0 mg/kg/injection, schedule: Q## X032 (ip), vehicle: saline",166 % of control
same,T/C,"dose: 45.0 mg/kg/injection, schedule: Q01DX001 (ip), vehicle: carboxymethylcellulose (CMC)",157 % of control
same,T/C,"dose: 48.0 mg/kg/injection, schedule: Q01DX009 (oral), vehicle: saline",90 % of control
same,T/C,"dose: 48.0 mg/kg/injection, schedule: Q## X008 (ip), vehicle: saline",191 % of control
same,T/C,"dose: 60.0 mg/kg/injection, schedule: Q01DX001 (oral), vehicle: saline",124 % of control
same,T/C,"dose: 64.0 mg/kg/injection, schedule: Q## X008 (ip), vehicle: saline",204 % of control and 229 % of control
same,T/C,"dose: 64.0 mg/kg/injection, schedule: Q## X024 (ip), vehicle: saline",88 % of control
same,T/C,"dose: 90.0 mg/kg/injection, schedule: Q01DX001 (oral), vehicle: saline",124 % of control
same,T/C,"dose: 90.0 mg/kg/injection, schedule: Q01DX001 (sc), vehicle: saline",118 % of control
same,T/C,"dose: 96.0 mg/kg/injection, schedule: Q## X008 (ip), vehicle: saline",114 % of control
same,T/C,"dose: 100.0 mg/kg/injection, schedule: Q01DX001 (ip), vehicle: saline",117 % of control
same,T/C,"dose: 120.0 mg/kg/injection, schedule: Q01DX001 (ip), vehicle: saline",113 % of control and 87 % of control
same,T/C,"dose: 180.0 mg/kg/injection, schedule: Q01DX001 (oral), vehicle: saline",101 % of control
same,T/C,"dose: 360.0 mg/kg/injection, schedule: Q01DX001 (oral), vehicle: saline",92 % of control
CCCCB1OCCCO1,T/C,"dose: 100.0 mg/kg/injection, schedule: Q01DX001 (ip), vehicle: Klucel (hydroxypropylcellulose) (HPC)",98 % of control
same,T/C,"dose: 200.0 mg/kg/injection, schedule: Q01DX001 (ip), vehicle: Klucel (hydroxypropylcellulose) (HPC)",88 % of control
same,T/C,"dose: 400.0 mg/kg/injection, schedule: Q01DX001 (ip), vehicle: Klucel (hydroxypropylcellulose) (HPC)",92 % of control
